Values joined by “and” are separate entries in the source; they are usually repeats but may differ in a detail not shown here. Equal values may be shown once. Inconclusive results and toxic doses are left out. The calls were made as follows: active = survival T/C of 150% or more; inactive = T/C below 125% in these data. Bridge positions count the residues as written; N and C are the ends. Peptide text beside a SMILES is read from it. I, II: the chains in the order shown.
System: P388 leukemia ip, CD2F1 mice, survival T/C
Assay: NCI In Vivo Anticancer Drug Screen. Data for tumor model P388 Leukemia (intraperitoneal) in CD2F1 (CDF1) mice
Conditions: endpoint: median survival time, higher = longer survival
Outline: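 Mice carrying the transplanted tumor received test compound or vehicle. Survival was recorded in each group, and the value is the treated-group measurement divided by that of the vehicle-treated control group.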

[1] = dose: 50.0 mg/kg/injection, schedule: Q01DX009 (ip), vehicle: saline
[2] = dose: 100.0 mg/kg/injection, schedule: Q01DX009 (ip), vehicle: saline
[3] = dose: 200.0 mg/kg/injection, schedule: Q01DX009 (ip), vehicle: saline
[4] = dose: 12.5 mg/kg/injection, schedule: Q01DX009 (ip), vehicle: saline with Tween-80
[5] = dose: 25.0 mg/kg/injection, schedule: Q01DX009 (ip), vehicle: saline with Tween-80
[6] = dose: 50.0 mg/kg/injection, schedule: Q01DX009 (ip), vehicle: saline with Tween-80
[7] = dose: 100.0 mg/kg/injection, schedule: Q01DX009 (ip), vehicle: saline with Tween-80
[8] = dose: 100.0 mg/kg/injection, schedule: Q04DX003 (ip), vehicle: saline
[9] = dose: 200.0 mg/kg/injection, schedule: Q04DX003 (ip), vehicle: saline
[10] = dose: 400.0 mg/kg/injection, schedule: Q04DX003 (ip), vehicle: saline
[11] = dose: 25.0 mg/kg/injection, schedule: Q01DX009 (ip), vehicle: Klucel (hydroxypropylcellulose) (HPC)
[12] = dose: 50.0 mg/kg/injection, schedule: Q01DX009 (ip), vehicle: Klucel (hydroxypropylcellulose) (HPC)
[13] = dose: 100.0 mg/kg/injection, schedule: Q01DX009 (ip), vehicle: Klucel (hydroxypropylcellulose) (HPC)
[14] = dose: 200.0 mg/kg/injection, schedule: Q01DX009 (ip), vehicle: Klucel (hydroxypropylcellulose) (HPC)
[15] = dose: 50.0 mg/kg/injection, schedule: Q01DX005 (ip), vehicle: Klucel (hydroxypropylcellulose) (HPC)
[16] = dose: 100.0 mg/kg/injection, schedule: Q01DX005 (ip), vehicle: Klucel (hydroxypropylcellulose) (HPC)
[17] = dose: 200.0 mg/kg/injection, schedule: Q01DX005 (ip), vehicle: Klucel (hydroxypropylcellulose) (HPC)
[18] = dose: 100.0 mg/kg/injection, schedule: Q04DX003 (ip), vehicle: Klucel (hydroxypropylcellulose) (HPC)
[19] = dose: 50.0 mg/kg/injection, schedule: Q01DX005 (ip), vehicle: saline with Tween-80
[20] = dose: 50.0 mg/kg/injection, schedule: Q01DX005 (ip), vehicle: saline
[21] = dose: 200.0 mg/kg/injection, schedule: Q01DX009 (ip), vehicle: saline with Tween-80

Measured: T/C

NC=NCC(=O)O
inactive: [1] 96 % of control | [2] 100 % of control | [3] 99 % of control

COC1=C(OC)C(=O)C(Sc2ccc3ccccc3c2)=CC1=O
inactive: dose: 6.25 mg/kg/injection, schedule: Q01DX009 (ip), vehicle: saline with Tween-80 103 % of control and 104 % of control | [4] 104 % of control | [5] 104 % of control and 119 % of control | [6] 100 % of control and 111 % of control | [7] 100 % of control

CCCC(NC)C(CC)CN (stereo unspecified)
inactive: [6] 95 % of control | [7] 100 % of control

Nc1nc[nH]c(=O)c1NC=O
inactive: [8] 120 % of control | [9] 100 % of control | [10] 110 % of control

CCCN1c2c3c(O)c4c(O)c(C)c5c(c4c2O)C(=O)C(C)(O/C=C/C(OC)C(C)C(OC(C)=O)C(C)C(O)C(C)C(O)C(C)/C=C/C=C(/C)C(=O)N3C1C)O5 (stereo unspecified)
inactive: [11] 96 % of control | [12] 101 % of control | [13] 93 % of control | [14] 90 % of control

CC(OC(=O)C1C2C=CC(C2)C1C(=O)O)c1cccnc1 (stereo unspecified)
inactive: [15] 97 % of control | [16] 100 % of control | [17] 98 % of control

CC(=O)CC(c1ccccc1)C(C(=O)O)c1ccccc1 (stereo unspecified)
inactive: [8] 93 % of control | [9] 100 % of control | [10] 100 % of control

CCCCCCC(=O)/C=C/c1ccc(OC(=O)c2ccc(Br)cc2)cc1
inactive: [4] 104 % of control | [5] 96 % of control | [6] 96 % of control

Cc1cc(C(=O)c2ccccc2)on1
inactive: [18] 104 % of control | dose: 200.0 mg/kg/injection, schedule: Q04DX003 (ip), vehicle: Klucel (hydroxypropylcellulose) (HPC) 100 % of control | dose: 400.0 mg/kg/injection, schedule: Q04DX003 (ip), vehicle: Klucel (hydroxypropylcellulose) (HPC) 100 % of control

O=S(=O)(O)Cc1ccc(CS(=O)(=O)O)cc1
inactive: dose: 12.5 mg/kg/injection, schedule: Q04DX002 (ip), vehicle: saline 93 % of control | dose: 25.0 mg/kg/injection, schedule: Q04DX002 (ip), vehicle: saline 102 % of control | dose: 50.0 mg/kg/injection, schedule: Q04DX002 (ip), vehicle: saline 98 % of control

C1=CC2(C=CC13OCCO3)OCCO2
inactive: dose: 25.0 mg/kg/injection, schedule: Q04DX003 (ip), vehicle: Klucel (hydroxypropylcellulose) (HPC) 107 % of control | dose: 50.0 mg/kg/injection, schedule: Q04DX003 (ip), vehicle: Klucel (hydroxypropylcellulose) (HPC) 99 % of control | [18] 103 % of control

CCOCC[Si]12OCCN(CCO1)CCO2
inactive: [15] 97 % of control | [16] 101 % of control | [17] 90 % of control

OCC(O)C[S][Bi]([c]1ccccc1)[c]1ccccc1 (stereo unspecified)
inactive: dose: 60.0 mg/kg/injection, schedule: Q01DX005 (ip), vehicle: Klucel (hydroxypropylcellulose) (HPC) 116 % of control | dose: 120.0 mg/kg/injection, schedule: Q01DX005 (ip), vehicle: Klucel (hydroxypropylcellulose) (HPC) 100 % of control

O=S(=O)(Nc1cccc(C(F)(F)F)c1)c1ccc(F)cc1
inactive: dose: 60.0 mg/kg/injection, schedule: Q01DX005 (ip), vehicle: saline with Tween-80 94 % of control | dose: 120.0 mg/kg/injection, schedule: Q01DX005 (ip), vehicle: saline with Tween-80 100 % of control | dose: 240.0 mg/kg/injection, schedule: Q01DX005 (ip), vehicle: saline with Tween-80 93 % of control

NC(CSSCC(N)C(=O)NC(Cc1ccccc1)C(=O)O)C(=O)NC(Cc1ccccc1)C(=O)O (stereo not drawn) (I: H-Cys-Phe-OH / II: H-Cys-Phe-OH; disulfide I:1-II:1; configuration not given here)
inactive: [15] 101 % of control | [16] 97 % of control | [17] 105 % of control

O=C(O)c1cn(O)ccc1=O
inactive: [19] 94 % of control | dose: 100.0 mg/kg/injection, schedule: Q01DX005 (ip), vehicle: saline with Tween-80 100 % of control | dose: 200.0 mg/kg/injection, schedule: Q01DX005 (ip), vehicle: saline with Tween-80 97 % of control

CCC(C(N)=O)C1=CCCCC1 (stereo unspecified)
inactive: dose: 100.0 mg/kg/injection, schedule: Q04DX003 (ip), vehicle: saline with Tween-80 104 % of control | dose: 200.0 mg/kg/injection, schedule: Q04DX003 (ip), vehicle: saline with Tween-80 100 % of control | dose: 400.0 mg/kg/injection, schedule: Q04DX003 (ip), vehicle: saline with Tween-80 100 % of control

CCC1C2Cc3ccc(O)cc3C1(C)CCN2 (stereo unspecified)
inactive: dose: 60.0 mg/kg/injection, schedule: Q01DX005 (ip), vehicle: saline 95 % of control | dose: 120.0 mg/kg/injection, schedule: Q01DX005 (ip), vehicle: saline 98 % of control

C[Si](C)(C)c1cc[c]([Sn]([CH3])([CH3])[CH3])cc1
inactive: [1] 105 % of control | [2] 101 % of control | [3] 93 % of control

COC(=O)c1nc(OC)nc(OC)c1C#CCOC1CCCCO1 (stereo unspecified)
inactive: dose: 12.5 mg/kg/injection, schedule: Q01DX009 (ip), vehicle: distilled water + Tween-80 92 % of control | dose: 25.0 mg/kg/injection, schedule: Q01DX009 (ip), vehicle: distilled water + Tween-80 108 % of control | dose: 50.0 mg/kg/injection, schedule: Q01DX009 (ip), vehicle: distilled water + Tween-80 94 % of control | dose: 100.0 mg/kg/injection, schedule: Q01DX009 (ip), vehicle: distilled water + Tween-80 94 % of control

CCC(=O)c1cc2ccccc2c2ccccc12
inactive: dose: 12.5 mg/kg/injection, schedule: Q01DX005 (ip), vehicle: saline 96 % of control | dose: 25.0 mg/kg/injection, schedule: Q01DX005 (ip), vehicle: saline 100 % of control | [19] 103 % of control | [20] 100 % of control

O=[N+]([O-])c1ccc(/C=N/N2CCNC2=S)o1
inactive: [11] 100 % of control | [12] 101 % of control | [13] 100 % of control | [14] 100 % of control

CN1C(=O)CC2(C)C1=CCc1scnc12 (stereo unspecified)
inactive: dose: 7.5 mg/kg/injection, schedule: Q01DX005 (ip), vehicle: saline with Tween-80 94 % of control | dose: 15.0 mg/kg/injection, schedule: Q01DX005 (ip), vehicle: saline with Tween-80 99 % of control | dose: 30.0 mg/kg/injection, schedule: Q01DX005 (ip), vehicle: saline with Tween-80 99 % of control

O=C(Nc1ccc(N=Nc2ccc(S(=O)(=O)O)cc2)cc1)c1ccc(N=Nc2cc(S(=O)(=O)O)c3ccccc3c2O)cc1
inactive: [20] 110 % of control | dose: 100.0 mg/kg/injection, schedule: Q01DX005 (ip), vehicle: saline 104 % of control

COn1nnc2ccccc21
inactive: [6] 99 % of control | [7] 104 % of control | [21] 92 % of control

C1C[N-]CC[N-]CC[N-]CC[N-]1.[Cl][Rh][Cl]
inactive: dose: 0.66 mg/kg/injection, schedule: Q01DX009 (ip), vehicle: saline 117 % of control | dose: 1.0 mg/kg/injection, schedule: Q01DX009 (ip), vehicle: saline 115 % of control | dose: 1.5 mg/kg/injection, schedule: Q01DX009 (ip), vehicle: saline 115 % of control | dose: 2.25 mg/kg/injection, schedule: Q01DX009 (ip), vehicle: saline 108 % of control | dose: 3.13 mg/kg/injection, schedule: Q01DX009 (ip), vehicle: saline 121 % of control | dose: 6.25 mg/kg/injection, schedule: Q01DX009 (ip), vehicle: saline 116 % of control | dose: 12.5 mg/kg/injection, schedule: Q01DX009 (ip), vehicle: saline 108 % of control

Nc1nc(N)c(N=O)c(Nc2ccccc2)n1
inactive: [6] 97 % of control | [7] 99 % of control | [21] 96 % of control

COc1cc(C(C)(C)C)c2oc3c(c2c1)C(=O)C(C(C)(C)C)=CC3(OC)OC
inactive: [1] 104 % of control | [2] 100 % of control | [3] 97 % of control

COc1cc2c(c(OC)c1O)-c1ccc(OC)c(=O)cc1[C@@H](NC(C)=O)CC2
active: dose: 10.0 mg/kg/injection, schedule: Q01DX009 (ip), vehicle: Klucel (hydroxypropylcellulose) (HPC) 150 % of control and 175 % of control

From PubChem BioAssay AID330 (DTP/NCI, 2004)
